# Measurements from ChEMBL document CHEMBL1821631, “A novel binding assay identifies high affinity ligands to the rosiglitazone binding site of mitoNEET” (Bioorg Med Chem Lett, 2011).
# Activity calls are given as the source filed them. No cut-off for these calls is given here.
# Tests used:
# [1] = target: T1, CDGSH iron-sulfur domain-containing protein 1 (Homo sapiens) (UniProt Q9NZ45); assay: Displacement of [3H]-rosiglitazone from human recombinant C-terminal His-tagged cytosolic domain of mitoNEET (32-108) at 80 uM by scintillation proximity assay
# T1 sequence (whole entry): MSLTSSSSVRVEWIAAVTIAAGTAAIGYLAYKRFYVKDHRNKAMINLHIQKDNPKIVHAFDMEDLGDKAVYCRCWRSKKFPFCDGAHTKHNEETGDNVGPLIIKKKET
# [2] = target: T2, CDGSH iron-sulfur domain-containing protein 1 (Homo sapiens, UniProt Q9NZ45); assay: Displacement of [3H]-rosiglitazone from human recombinant C-terminal His-tagged cytosolic domain of mitoNEET (32-108) by scintillation proximity assay
# T2 sequence (Q9NZ45 whole entry): T1 sequence (whole entry)
SMILES,inhibition [1],IC50 [2] [µM]
O=C1NC(=S)S/C1=C/c1ccncc1,–,5.97
O=C1NC(=O)/C(=C\c2cc(Br)c(O)cc2Br)S1,–,2.93
COc1cc(/C=C2\SC(=S)NC2=O)ccc1O,–,1.73
O=C(/C=C1/SC(=O)NC1=O)Nc1cccc(O)c1,–,13.7
Oc1ccc(/C=C/c2cc(O)cc(O)c2)cc1,inactive,–
O=C1NC(=O)C(Cc2ccc(O)cc2)S1 (stereo unspecified) [GLITAZONE],–,14
O=S(=O)(O)Oc1cc(O)cc(/C=C/c2ccc(O)cc2)c1,–,3.36

# Results, then the compound that gave them:
inhibition [1],IC50 [2] [µM],SMILES
inactive,–,N#CCCN1C(=O)S/C(=C\c2ccccc2)C1=O
–,5.23,O=C1NC(=O)C(Cc2ccc3c(c2)OC(F)(F)O3)S1 (stereo unspecified)
–,82.3,COc1ccccc1/C=C1\SC(=O)N(CCN)C1=O
–,3.26,O=C1NC(=O)/C(=C/c2ccc3nccnc3c2)S1
–,9.56,Cc1cc(CC2SC(=O)NC2=O)cc(C)c1O (stereo unspecified)
–,13.3,Cc1cc(C)cc(CC2SC(=O)NC2=O)c1 (stereo unspecified)
–,7.36,CC(C)(C)c1cc(CC2SC(=O)N=C2O)cc(C(C)(C)C)c1O (stereo unspecified)
–,11.1,O=C(/C=C1/SC(=O)NC1=O)Nc1ccccc1
–,4.47,COc1cc(/C=C2/SC(=S)NC2=O)c(OC)cc1O
